“Also recorded” adds a separate entry of the source.
Tests used:
MCF-7 cell line = assay type: cell-based, human; settings: dose range 1-50 μM
Source text: (§1) Two human breast cancer cell lines were used. They were: (1) the estrogen receptor positive MCF-7 cell line and (2) the estrogen receptor negative MDA-MB-231 cell line. Both cell lines contain GnRH receptors. These cell lines were used to illustrate the anticancer effects of GnRH-III. The cells were maintained in Dulbecco-modified Eagle-minimal essential medium (DMEM, GIBCO) containing 10% fetal calf serum (10% FCS). The clonogenic assay provides information on the cell damaging effects of a substance in a dose-dependent manner. Three hundred cells were transferred into 35 mm Petri dishes in 2.5 ml of medium. On the following day, the cultures were treated with 1, 5, 10, 20, 30 and 50 μM doses of GnRH-III. Colonies which developed from specific cells were stained with crystal violet and counted on days 8 to 12 after treatment. Colony numbers of untreated control cultures were counted for comparison.

MDA-MB-231 cell line = assay type: cell-based, human; settings: dose range 1-50 μM
Source text: as §1

[1] = test system: human breast cancer cell lines; assay type: cell-based
Source text: as §1, with “comparison. The antiproliferation assay used herein measures the inhibition of cell proliferation due to drug exposure. Loose subconfluent cultures (6×10^5 -1×10^6 cells) in 100 mm Petri dishes were initiated and treated with 1, 5, 10, 20, 30 and 50 μM doses of GnRH-III on every other day for various periods of time. On day 6, the cell numbers of both control and treated cultures were counted in a Neubauer-type hemocytometer.” for “comparison.”

rat pituitary cells = test: Superfused rat pituitary cell system (LH release); assay type: cell-based
Method: The GnRH activity of the peptides were assayed by using the superfused rat pituitary cell system as described by Vigh and Schally, Peptides, 5:241-247, Suppl. 1, (1984) and Csernus and Schally, Neuroendocrine Research Methods, Greenstein, B., ed., Harwood Academic Publishers, London, pp66-102 (1985). Mixed cell populations of four regularly cycling female rats, at random stages of the estrous cycle, were used in each chamber of a superfusion apparatus. The cells were perfused for 12 hours with Medium 199 (Sigma) at a flow rate of 20 ml/hour, prior to administration of the peptides. […] The peptide-containing solutions are prepared from the stock solution immediately before use. At the beginning of each experiment, cells were rechallenged with potassium to check the secretability of Luteinizing Hormone, independent of the participation of specific hormone recptors. Fractions, 1 ml per 3 minutes, were collected and the concentration of Luteinzing Hormone was determined by radioimmunoassay. NIAMD radioimmunoassay kits were used for the Luteinizing Hormone and Follicle Stimulating Hormone assays. The superfusion data was analyzed by the computer program of Csernus and Schally (1985).

ovulation in rats [2] = test: In vivo assay of inhibition of ovulation (chemical castration); design: species or system rat
Method: Adult female rates(Wistar-R-Amsterdam), 200-250 grams, housed under controlled lighting (light period 05:00 to 19:00) with free access to pelleted food and tap water were used herein. For the in vivo assay of inhibition of ovulation, aliquots of peptide solutions were injected subcutaneously into female rats at noon on the day of proestrous for single-dose tests and every day at noon for long term tests. Only rats which had previously shown three consecutive regular 4-day cycles, as indicated by vaginal smears test, were used herein. Animals were ovariectomized on the day of the first diestrous after the injection. Oviducts were prepared under stereo-microscope and tested for ova as is well known in the art.

ovulation in rats [3] = settings: cited from earlier work

**Q.** For `NCCCC[C@H](NC(=O)[C@H](Cc1c[nH]c2ccccc12)NC(=O)[C@H](CC(=O)O)NC(=O)[C@H](Cc1c[nH]cn1)NC(=O)[C@H](CO)NC(=O)[C@H](Cc1c[nH]c2ccccc12)NC(=O)[C@H](Cc1c[nH]cn1)NC(=O)[C@@H]1CCC(=O)N1)C(=O)N1CCC[C@H]1C(=O)NCC(N)=O` [GnRH-III], which colony formation (MCF-7 cell line) is on record?
**A.** inhibited colony formation

**Q.** And the colony formation (MDA-MB-231 cell line)?
**A.** inhibited colony formation

**Q.** What about the “decrease in cloning efficiency” value ([1]; at 30 μM) of the same compound?
**A.** 65-80%

**Q.** What about the “anticancer activity compared with other GnRH analogs” value ([1]; in vitro, human breast cancer cell lines) of the same compound?
**A.** surpass that of the well known agonists Buserelin, Decapeptyl and Ovurelin, and to approximate that of the antagonists SB-30 and MI-1544

**Q.** And the “LH release at high concentration” value (rat pituitary cells; 10^-6 M)?
**A.** did cause LH release

**Q.** And the “agonist/antagonist character in mammalian pituitary gland” value (rat pituitary cells; doses of 10^-9 to 10^-7 M)?
**A.** neither agonist, nor antagonist

**Q.** What about the influence on ovulation (ovulation in rats [2]; female rats, subcutaneous, doses of 10^-9 to 10^-7 M) of the same compound?
**A.** no influence on ovulation

**Q.** And the function of gonads (ovulation in rats [2]; rats)?
**A.** did not influence the function of gonads; also recorded: does not influence gonadal function

**Q.** What about the histology of ovary (ovulation in rats [2]; rats, repeated injections) of the same compound?
**A.** did not change histology of ovary; also recorded: did not change the histological character of ovary

**Q.** For “[B-Asp(α-diethylamide^6 ],Gln^8)GnRH [TH-332, reference compound]”, which colony formation (MCF-7 cell line) is on record?
**A.** did not inhibit colony formation

**Q.** What about the colony formation (MDA-MB-231 cell line) of the same compound?
**A.** did not inhibit colony formation

**Q.** Which “induction of LH release” value (rat pituitary cells; doses 10^-9 -10^-7 M) does the source give for “human GnRH: hypothalamic peptide hormone stimulating release of Luteinizing Hormone and Follicle Stimulating Hormone (QHWSYGLRPG; Gonadoliberin-1; UniProt P01148 24-33, looked up) [reference compound]” here?
**A.** did not induce Luteinizing Hormone (LH)-release

**Q.** What about the “inhibition of LH release induced by native GnRH” value (rat pituitary cells; doses 10^-9 -10^-7 M) of the same compound?
**A.** neither did it inhibit the LH-release induced by native GnRH

**Q.** What about the “effective doses on ovulation” value (ovulation in rats [3]) of the same compound?
**A.** 10^-9 to 10^-7 M

Reference: patent US5593965A, “Anti-tumor effects of GnRH-III” (Creighton University, priority 1994, dated 1997)
